Experimental data from a melting point compilation (Tetko et al.; mined from patent text by program, amines drawn as free bases though some values may be those of a salt).

Compound `O=Cc1ccc(C=Cc2ccc3ccccc3n2)cc1` has a melting point of 112 to 113 °C. In the case of `N[C@@H](Cc1cccc(OCC(F)(F)F)c1)[C@H](O)c1ccc(F)cc1` (racemic), the melting point is reported as 94 to 95 °C. In the case of `O=C(O)c1cc2ccccc2c(=O)o1`, the melting point is reported as 241 to 242 °C. `Cc1c(NC(=O)c2ccc(OC[C@@H]3CCCO3)cc2F)ccc2c1cc(CNCC(C)(C)O)n2C` gave a melting point of 118 °C. In the case of `CCOC(=O)c1c2ccc(Cl)cc2c(-c2ccccc2)n1CCCN(CC)C(C)=O`, the melting point is reported as 102 to 104 °C. Compound `CC(C#N)c1ccc(O)cc1` (centres undefined) has a melting point of 41 to 46 °C. For `NC(=O)c1cc2cc(OCC(O)CCl)ccc2o1` (centres undefined), the melting point was 136 to 138 °C. Work on `CCS(=O)(=O)CCC(=O)NNC(=O)N1Cc2ccccc2Oc2ccc(O)cc21` yielded a melting point of 191 to 194 °C. `CCOC(=O)C(=O)NCc1ccccc1` showed a melting point of 47 to 50 °C. Compound `c1ccc(N(c2ccccc2)c2ccc(-c3ccc(-c4ccnc(CNc5ccc6ccccc6c5)n4)cc3)cc2)cc1` has a melting point of 204 to 205 °C. With `COc1ccc(/C(=C/C(=O)O)c2cc(C)cc(Cl)c2)cc1` the melting point was 190 to 192 °C. Compound `Clc1ccc(Oc2cncc3sccc23)cc1` has a melting point of 87 to 89 °C. `COc1cc(OC)c2c(c1)OC(C(C)(C)C(N)=O)CC2=O` (centres undefined) showed a melting point of 161 to 163 °C. In the case of `CCOC(=O)C1=CC(CF)(CF)Oc2ccc([N+](=O)[O-])cc21`, the melting point is reported as 96 to 98 °C. Compound `CC(C)Oc1nc(N)nc2c1ncn2C1CC(N=[N+]=[N-])C(CO)O1` (centres undefined) has a melting point of 195 to 197 °C. Work on `COc1ccccc1-c1nsc2ccc([N+](=O)[O-])cc12` yielded a melting point of 193 to 198 °C. `CC1(C)CCC(C)(C)c2cc(CCCO)c(/C=C/c3ccc(C(=O)O)cc3)cc21` showed a melting point of 213 °C. Compound `O=C(O)C=C(c1ccccc1)c1ccc([N+](=O)[O-])cc1` has a melting point of 188 to 189 °C. With `O=c1c2cc(O)ccc2oc2c([N+](=O)[O-])ccc(Cl)c12` the melting point was 290 to 292 °C. Work on `COc1c(Br)ccc2oc(CNc3ccc(-c4ccc(S(=O)(=O)NC(C(=O)O)C(C)C)cc4)cc3)c(C)c12` (centres undefined) yielded a melting point of 194 to 198 °C. `O=C(CSc1ncc(Br)cn1)c1ccccc1` showed a melting point of 107 to 109 °C. For `C#Cc1cccc(Nc2ncnc3[nH]cc(-c4cccs4)c23)c1`, the melting point was 230 to 232 °C. `O=[N+]([O-])c1ccc(Oc2ccc(O)cc2)cc1` gave a melting point of 173 to 174 °C. Work on `Cc1ccc(-n2c(-c3ccccc3)cc(Br)c2-c2ccccc2)cc1` yielded a melting point of 201 to 202 °C. With `CCCCCCCCCCC(O)C1CCC(C2CCC(C(O)CCCCCCCCCCC3CC(CC(C)=O)C(=O)O3)O2)O1` (centres undefined) the melting point was 90.5 to 90.7 °C. Compound `CNc1nc(C(C)c2ccc(-c3ccccc3)c(F)c2)c(C(=O)NO)s1` (centres undefined) has a melting point of 118 °C. Work on `Cc1ccc(C=CC(=O)N(C)O)cc1` yielded a melting point of 142 to 144 °C. Work on `Cc1nc(COc2cccc(Cl)c2C)no1` yielded a melting point of 69 °C. In the case of `CCCCNS(=O)(=O)C[C@@H](O)C(O)[C@@H](CC1CCCCC1)NC(=O)[C@@H](N)CC(C)C` (relative stereo), the melting point is reported as 99 to 109 °C. Work on `CN(CCOc1ccc(NS(C)(=O)=O)cc1)CCc1ccc(NS(C)(=O)=O)cc1` yielded a melting point of 150 to 152 °C. In the case of `O=C(O)C1=Cc2cc(SC(F)(F)F)ccc2SC1C(F)(F)F` (centres undefined), the melting point is reported as 129 to 132 °C. Work on `Cc1c[nH]c2c(Sc3nc4cc(Cl)ccc4[nH]3)ccc([N+](=O)[O-])c12` yielded a melting point of 252 to 253 °C. For `Cc1cc(Nc2ccc(Cl)c(Cl)c2)nc(-n2nc(C)cc2C)n1`, the melting point was 135 to 138 °C. Work on `CCOc1cc(-c2cc(C(F)(F)F)n3ncc(C(=O)Nc4cccc(S(=O)(=O)N5CCOCC5)c4)c3n2)ccc1C(F)(F)F` yielded a melting point of 235 °C. For `Cn1nnnc1-c1ccccc1S(N)(=O)=O`, the melting point was 176 to 179 °C. In the case of `CCc1cc(-c2cc(N)n3nc(-c4ccco4)nc3c2)ccn1`, the melting point is reported as 184 to 186 °C. Compound `C=C1Cc2c(n(-c3ccccc3)c3ncccc3c2=O)O1` has a melting point of 259 to 261 °C. In the case of `CC(=O)OC1C=C(C)C(=O)CC(C)(C)C1OC(=O)c1ccccc1` (centres undefined), the melting point is reported as 86 to 87 °C. `COc1ccc(-c2cnc(N)c(Cc3ccccc3)n2)cc1` showed a melting point of 150 to 153 °C. Compound `CN=C=Nc1ccccc1N1CCOCC1` has a melting point of 67 to 68 °C. For `Oc1ccc(-c2cnc3cnc(-c4ccc(O)cc4)nc3c2)cc1`, the melting point was 307 to 308 °C. Compound `N=C1CN(c2ccccc2)C(=N)O1` has a melting point of 117 to 119 °C. With `CS(=O)(=O)N1CCCn2c(nc3c(N)nc4cccnc4c32)C1` the melting point was greater than 250 °C. For `O=C(O)c1cc(C#Cc2ccc(C(=O)O)c(C(=O)O)c2)cc(C(=O)O)n1`, the melting point was greater than 300 °C. In the case of `COc1ccccc1C(Cc1ccccc1)(Cn1cncn1)C(=O)O` (centres undefined), the melting point is reported as 250 to 252 °C. Compound `O=C(Nc1ccccc1Oc1ccc(Cl)cc1Cl)C1CCN(S(=O)(=O)c2cc(Cl)ccc2Cl)CC1` has a melting point of 194 to 196 °C. Compound `Cn1ncc2c(=O)[nH]cnc21` has a melting point of 289 to 290 °C. `O=c1c(Cl)c(OCc2ccc(Cl)cc2)cnn1CCCBr` gave a melting point of 83 to 87 °C. Work on `Cc1c(C(=O)Nc2ccc(N3CCC(N4CCOCC4)CC3)c(C#N)c2)cnn1Cc1ccccc1` yielded a melting point of 155 °C.
